From EP4722201A1, “3-PHENYLISOXAZOLINE-5-CARBOXAMIDE COMPOUND, AND PREPARATION METHOD THEREFOR, HERBICIDAL COMPOSITION THEREOF AND USE THEREOF” (Jiangsu Flag Chemical Industry Co., Ltd, priority 2023, dated 2024)

Columns and labels:
Test in all cases: Indoor herbicide activity determination, Seed Treatment; pre-emergence (soil spray)
Assay type in all cases: in vivo
[1] = tested on: Eleusine indica
Procedure, shortened: (§1)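 Weed seeds were sown in 7 cm pots of sandy nutrient soil (pH 6.1, 1% organic matter), covered, bottom-watered and held 24 h in a constant-temperature illuminated room before the soil surface was sprayed in a traveling spray tower. Fresh-weight inhibition versus untreated plants was scored 21 days later.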

[2] = tested on: Lolium multiflorum
Procedure, shortened: as §1

[3] = tested on: Leptochloa chinensis
Procedure, shortened: as §1

[4] = tested on: Alopecurus japonicus
Procedure, shortened: as §1

[5] = tested on: Aegilops tauschii; conditions: read-out: Herbicidal activities (inhibition rate) Aegilops tauschii; for inhibition at 120 g/ha: 120 g a.i./ha; for inhibition at 60 g/ha: 60 g a.i./ha
Procedure, shortened: as §1

[6] = tested on: Digitaria sanguinalis; conditions: read-out: Herbicidal activities (inhibition rate) Digitaria sanguinalis; for inhibition at 120 g/ha: 120 g a.i./ha; for inhibition at 60 g/ha: 60 g a.i./ha
Procedure, shortened: as §1

[7] = tested on: Eclipta prostrata; conditions: read-out: Herbicidal activities (inhibition rate) Eclipta prostrata; for inhibition at 120 g/ha: 120 g a.i./ha; for inhibition at 60 g/ha: 60 g a.i./ha
Procedure, shortened: as §1

[8] = tested on: Alopecurus myosuroides
Procedure, shortened: as §1

[9] = tested on: Cyperus iria; conditions: read-out: Herbicidal activities (inhibition rate) Cyperus iria; for inhibition at 120 g/ha: 120 g a.i./ha; for inhibition at 60 g/ha: 60 g a.i./ha
Procedure, shortened: as §1

SMILES | Herbicidal activities, Eleusine indica (inhibition rate class) ([1]; Dosage 240 g a.i./ha) | Herbicidal activities, Lolium multiflorum (inhibition rate class) ([2]; Dosage 240 g a.i./ha) | Herbicidal activities, Leptochloa chinensis (inhibition rate class) ([3]; Dosage 240 g a.i./ha) | Herbicidal activities, Alopecurus japonicus (inhibition rate class) ([4]; Dosage 240 g a.i./ha) | inhibition at 120 g/ha [5] [%] | inhibition at 120 g/ha [6] [%] | inhibition at 120 g/ha [7] [%] | Herbicidal activities, Alopecurus myosuroides (inhibition rate class) ([8]; Dosage 240 g a.i./ha) | inhibition at 120 g/ha [9] [%] | Herbicidal activities, Eleusine indica (inhibition rate class) ([1]; Dosage 120 g a.i./ha) | Herbicidal activities, Leptochloa chinensis (inhibition rate class) ([3]; Dosage 120 g a.i./ha) | Herbicidal activities, Alopecurus japonicus (inhibition rate class) ([4]; Dosage 120 g a.i./ha) | inhibition at 60 g/ha [5] [%] | inhibition at 60 g/ha [6] [%] | inhibition at 60 g/ha [7] [%] | Herbicidal activities, Alopecurus myosuroides (inhibition rate class) ([8]; Dosage 120 g a.i./ha) | inhibition at 60 g/ha [9] [%] | Herbicidal activities, Lolium multiflorum (inhibition rate class) ([2]; Dosage 120 g a.i./ha)
C=CC1(C(=O)N[C@H]2CO[C@@H](C(=O)OC)C2)CC(c2cc(F)cc(C(F)(F)F)c2)=NO1 (mixture of isomers) [I-368] | A (A indicates that the inhibition rate was greater than or equal to 80% to 100%) | A (A indicates that the inhibition rate was greater than or equal to 80% to 100%) | A (A indicates that the inhibition rate was greater than or equal to 80% to 100%) | A (A indicates that the inhibition rate was greater than or equal to 80% to 100%) | 80 to 100 | 60 to 80 | 40 to 60 | A (A indicates that the inhibition rate was greater than or equal to 80% to 100%) | 60 to 80 | – | – | – | – | – | – | – | – | –
C=CC1(C(=O)N[C@H]2CO[C@@H](C(=O)OC)C2)CC(c2cc(F)cc(OC(F)(F)F)c2)=NO1 (mixture of isomers) [I-369] | A (A indicates that the inhibition rate was greater than or equal to 80% to 100%) | A (A indicates that the inhibition rate was greater than or equal to 80% to 100%) | A (A indicates that the inhibition rate was greater than or equal to 80% to 100%) | A (A indicates that the inhibition rate was greater than or equal to 80% to 100%) | 80 to 100 | 60 to 80 | 40 to 60 | A (A indicates that the inhibition rate was greater than or equal to 80% to 100%) | 60 to 80 | – | – | – | – | – | – | – | – | –
C=CC1(C(=O)N[C@H]2CO[C@@H](C(=O)OC)C2)CC(c2cc(F)cc(OC(F)F)c2)=NO1 (mixture of isomers) [I-370] | A (A indicates that the inhibition rate was greater than or equal to 80% to 100%) | A (A indicates that the inhibition rate was greater than or equal to 80% to 100%) | A (A indicates that the inhibition rate was greater than or equal to 80% to 100%) | A (A indicates that the inhibition rate was greater than or equal to 80% to 100%) | 80 to 100 | 60 to 80 | 60 to 80 | A (A indicates that the inhibition rate was greater than or equal to 80% to 100%) | 80 to 100 | – | – | – | – | – | – | – | – | –
C=CC1(C(=O)N[C@H]2CO[C@@H](C(=O)OC)C2)CC(c2cc(Cl)cc(C(F)(F)F)c2)=NO1 (mixture of isomers) [I-371] | A (A indicates that the inhibition rate was greater than or equal to 80% to 100%) | A (A indicates that the inhibition rate was greater than or equal to 80% to 100%) | A (A indicates that the inhibition rate was greater than or equal to 80% to 100%) | A (A indicates that the inhibition rate was greater than or equal to 80% to 100%) | 80 to 100 | 60 to 80 | 40 to 60 | A (A indicates that the inhibition rate was greater than or equal to 80% to 100%) | 60 to 80 | – | – | – | – | – | – | – | – | –
C=CC1(C(=O)N[C@H]2CO[C@@H](C(=O)OC)C2)CC(c2cc(Cl)cc(OC(F)(F)F)c2)=NO1 (mixture of isomers) [I-372] | A (A indicates that the inhibition rate was greater than or equal to 80% to 100%) | A (A indicates that the inhibition rate was greater than or equal to 80% to 100%) | A (A indicates that the inhibition rate was greater than or equal to 80% to 100%) | A (A indicates that the inhibition rate was greater than or equal to 80% to 100%) | 80 to 100 | 80 to 100 | 80 to 100 | A (A indicates that the inhibition rate was greater than or equal to 80% to 100%) | 80 to 100 | – | – | – | – | – | – | – | – | –
C=CC1(C(=O)N[C@H]2CO[C@@H](C(=O)OC)C2)CC(c2cc(Cl)cc(OC(F)F)c2)=NO1 (mixture of isomers) [I-373] | B (B indicates that the inhibition rate was greater than or equal to 60% to less than 80%) | A (A indicates that the inhibition rate was greater than or equal to 80% to 100%) | A (A indicates that the inhibition rate was greater than or equal to 80% to 100%) | A (A indicates that the inhibition rate was greater than or equal to 80% to 100%) | 60 to 80 | 80 to 100 | 80 to 100 | A (A indicates that the inhibition rate was greater than or equal to 80% to 100%) | 60 to 80 | – | – | – | – | – | – | – | – | –
C#CCOC(=O)[C@H]1C[C@@H](NC(=O)[C@@]2(C(F)(F)F)CC(c3cc(F)cc(OC(F)(F)F)c3)=NO2)C1 [I-255] | – | – | – | – | – | – | – | – | – | A (A indicates that the inhibition rate was greater than or equal to 80% to 100%) | A (A indicates that the inhibition rate was greater than or equal to 80% to 100%) | A (A indicates that the inhibition rate was greater than or equal to 80% to 100%) | 80 to 100 | 60 to 80 | 60 to 80 | A (A indicates that the inhibition rate was greater than or equal to 80% to 100%) | 80 to 100 | –
COC(=O)C1CC(NC(=O)C2(C(F)(F)F)CC(c3cc(F)cc(C(F)(F)F)c3)=NO2)CO1 (centres unmarked) [I-392] | – | A (A indicates that the inhibition rate was greater than or equal to 80% to 100%) | A (A indicates that the inhibition rate was greater than or equal to 80% to 100%) | A (A indicates that the inhibition rate was greater than or equal to 80% to 100%) | 80 to 100 | 80 to 100 | 60 to 80 | A (A indicates that the inhibition rate was greater than or equal to 80% to 100%) | 60 to 80 | – | – | – | – | – | – | – | – | –
COC(=O)C1CC(NC(=O)C2(C(F)(F)F)CC(c3cc(F)cc(OC(F)(F)F)c3)=NO2)CO1 (centres unmarked) [I-393] | – | A (A indicates that the inhibition rate was greater than or equal to 80% to 100%) | A (A indicates that the inhibition rate was greater than or equal to 80% to 100%) | A (A indicates that the inhibition rate was greater than or equal to 80% to 100%) | 80 to 100 | 60 to 80 | 60 to 80 | A (A indicates that the inhibition rate was greater than or equal to 80% to 100%) | 60 to 80 | – | – | – | – | – | – | – | – | –
COC(=O)C1CC(NC(=O)C2(C(F)(F)F)CC(c3cc(Cl)cc(C(F)(F)F)c3)=NO2)CO1 (centres unmarked) [I-399] | – | B (B indicates that the inhibition rate was greater than or equal to 60% to less than 80%) | A (A indicates that the inhibition rate was greater than or equal to 80% to 100%) | B (B indicates that the inhibition rate was greater than or equal to 60% to less than 80%) | 80 to 100 | 80 to 100 | 60 to 80 | A (A indicates that the inhibition rate was greater than or equal to 80% to 100%) | 60 to 80 | – | – | – | – | – | – | – | – | –
C=C[C@]1(C(=O)N[C@H]2C=C[C@@H](C(=O)OCC)C2)CC(c2cc(F)cc(C(F)(F)F)c2)=NO1 [I-429] | – | – | – | – | – | – | – | – | – | A (A indicates that the inhibition rate was greater than or equal to 80% to 100%) | A (A indicates that the inhibition rate was greater than or equal to 80% to 100%) | A (A indicates that the inhibition rate was greater than or equal to 80% to 100%) | 60 to 80 | 60 to 80 | 60 to 80 | A (A indicates that the inhibition rate was greater than or equal to 80% to 100%) | 60 to 80 | A (A indicates that the inhibition rate was greater than or equal to 80% to 100%)
